{"source": "patent US6548043B1", "about": "“Measurement of gastric emptying” (Metabolic Solutions, Inc., priority 1999, dated 2003)", "experiment": "GMBT, influence of a promotility agent", "format": "in vivo, human", "conditions": "Cisapride 10 mg the evening before and one half hour before a 350 kcal muffin test meal", "protocol": "An experiment was done to examine the ability of the GMBT to detect changes introduced by the promotility agent, Cisapride. Gastric emptying tests employing a 350 kcal muffin test meal were administered on two occasions within a one-week period. One test was conducted as a control. The other test was conducted after treatment with Cisapride. Cisapride (10 mg) was administered at 10:00 P.M. on the evening prior to the test and one half hour before administration of the muffin test meal. Gastric emptying results for the control meal were delayed relative to the meal administered with Cisapride."}
{"smiles": "COc1cc(N)c(Cl)cc1C(=O)NC1CCN(CCCOc2ccc(F)cc2)CC1OC", "note": "(centres unmarked) [Cisapride]", "values": [{"measurement": "change in T½ versus control", "setting": "p=0.05", "value": "significant decrease"}, {"measurement": "change in Tlag versus control", "setting": "p=0.21", "value": "not significant"}]}
